From article PMC6610938 (BMC Microbiology, 2019)
Converted amounts (≈) assume the structure as drawn.

Assays:
[1] = system: T1, Pseudomonas aeruginosa ATCC 27853; assay: microbe, parasite or virus in culture; design: CLSI broth microdilution MIC in cation-adjusted Mueller Hinton broth, standard inoculum; conditions: ATCC27853, inoculum 5 x 10^5 CFU/mL, run 1
T1 construct: ATCC 27853
Experimental: (§1) Each strain was tested at the standard inoculum of 5 × 10^5 colony forming units (CFU)/mL, as well as at inocula lower (5 × 10^4) and greater (5 × 10^6) than the standard inoculum. Antibacterial susceptibility testing for each P. aeruginosa isolate obtained from the four isolate sources listed above was performed using standard CLSI broth microdilution methodology using cation-adjusted Mueller Hinton broth.

[2] = system: T2, Pseudomonas aeruginosa CLB 24228; assay: microbe, parasite or virus in culture; design: CLSI broth microdilution MIC in cation-adjusted Mueller Hinton broth, standard inoculum; conditions: CLB24228, inoculum 5 x 10^5 CFU/mL, run 1
T2 construct: CLB 24228
Experimental: as §1

## C[C@@H](O)[C@H]1C(=O)N2C(C(=O)O)=C(SCCNC=N)C[C@H]12 [IMI, imipenem]
[1]
  MIC: 2 mg/L (≈ 6.68 µM)
[2]
  MIC: 32 mg/L (≈ 107 µM)
